In ChEMBL document CHEMBL5050844 (2019):

Assays:
[1] = Induction of anti-CD3/CD28 antibodies-stimulated human CD8+ T cell activation at 10 uM assessed fold increase in CD69 expression measured by flow cytometry analysis; type: functional, T cell line
[2] = Induction of anti-CD3/CD28 antibodies-stimulated human T cell activation at 10 uM assessed fold increase in IFN-gamma secretion measured by ELISA assay; type: functional, T cell line
[3] = Induction of activation of human CD56+ CD3- NK cells co-cultured with human K562 cells in 1:1 ratio and assessed as increase in TNF-alpha secretion at 0.625 uM measured by ELISA assay; type: functional, Natural killer cell
[4] = Induction of anti-CD3/CD28 antibodies-stimulated human T cell activation at 1 uM assessed fold increase in CD25 expression measured by ELISA assay; type: functional, T cell line
[5] = Induction of anti-CD3 antibodies-stimulated human T cell activation at 10 uM assessed fold increase in TNF-alpha secretion measured by ELISA assay; type: functional, T cell line; further: reference of the scale not given here
[6] = Induction of anti-CD3/CD28 antibodies-stimulated human anergic T cell activation at 1.11 uM assessed fold increase in IFN-gamma secretion measured by ELISA assay; type: functional, T cell line
[7] = Induction of activation of human CD56+ CD3- NK cells co-cultured with human K562 cells in 1:1 ratio and assessed as increase in IFN-gamma secretion at 10 uM measured by ELISA assay; type: functional, Natural killer cell
[8] = Induction of anti-CD3/CD28 antibodies-stimulated human T cell activation at 0.3 uM assessed fold increase in IL-2 secretion measured by ELISA assay; type: functional, T cell line
[9] = Induction of anti-CD3/CD28 antibodies-stimulated human T cell activation at 1.11 uM assessed fold increase in GM-CSF secretion measured by ELISA assay; type: functional, T cell line
[10] = Induction of anti-CD3 antibodies-stimulated human CD8+ T cell activation at 10 uM assessed fold increase in cell proliferation measured by flow cytometry analysis; type: functional, T cell line; further: reference of the scale not given here
[11] = Induction of anti-CD3/CD28 antibodies-stimulated human T cell activation at 1.11 uM assessed fold increase in IFN-gamma secretion measured by ELISA assay; type: functional, T cell line
[12] = Induction of anti-CD3 antibodies-stimulated human exhausted T cell activation assessed fold increase in IFN-gamma secretion measured by ELISA assay; type: functional, T cell line; further: reference of the scale not given here
[13] = Induction of activation of human CD56+ CD3- NK cells co-cultured with human K562 cells in 1:1 ratio and assessed as increase in TNF-alpha secretion at 2.5 uM measured by ELISA assay; type: functional, Natural killer cell
[14] = Induction of anti-CD3/CD28 antibodies-stimulated human T cell activation at 10 uM assessed fold increase in TNF-alpha secretion measured by ELISA assay; type: functional, T cell line
[15] = Induction of activation of human CD56+ CD3- NK cells co-cultured with human K562 cells in 1:1 ratio and assessed as increase in IFN-gamma secretion at 2.5 uM measured by ELISA assay; type: functional, Natural killer cell
[16] = Induction of anti-CD3 antibodies-stimulated human T cell activation at 1 uM assessed fold increase in IL-2 secretion measured by ELISA assay; type: functional, T cell line; further: reference of the scale not given here
[17] = Induction of anti-CD3/CD28 antibodies-stimulated human anergic T cell activation at 0.37 uM assessed fold increase in IFN-gamma secretion measured by ELISA assay; type: functional, T cell line
[18] = Induction of anti-CD3/CD28 antibodies-stimulated human T cell activation at 4 uM assessed fold increase in IL-2 secretion measured by ELISA assay; type: functional, T cell line
[19] = Induction of allogenic human T cell activation at 10 uM assessed fold increase in cell proliferation; type: functional, T cell line
[20] = Induction of anti-CD3 antibodies-stimulated human CD4+ T cell activation at 10 uM assessed fold increase in CD69 expression measured by flow cytometry analysis; type: functional, T cell line; further: reference of the scale not given here
[21] = Induction of anti-CD3/CD28 antibodies-stimulated human CD8+ T cell activation at 10 uM assessed fold increase in cell proliferation measured by flow cytometry analysis; type: functional, T cell line
[22] = Induction of anti-CD3 antibodies-stimulated human exhausted T cell activation assessed fold increase in GM-CSF secretion measured by ELISA assay; type: functional, T cell line; further: reference of the scale not given here
[23] = Induction of activation of human CD56+ CD3- NK cells co-cultured with human K562 cells in 1:1 ratio and assessed as increase in TNF-alpha secretion at 10 uM measured by ELISA assay; type: functional, Natural killer cell
[24] = Induction of anti-CD3 antibodies-stimulated human T cell activation at 1 uM assessed fold increase in CD25 expression measured by ELISA assay; type: functional, T cell line; further: reference of the scale not given here
[25] = Induction of anti-CD3 antibodies-stimulated human exhausted CD4+ T cell activation assessed fold increase in CTLA4 expression measured by flow cytometry analysis; type: functional, T cell line; further: reference of the scale not given here
[26] = Induction of anti-CD3/CD28 antibodies-stimulated human CD8+ T cell activation at 1.11 uM assessed fold increase in cell proliferation measured by flow cytometry analysis; type: functional, T cell line
[27] = Induction of anti-CD3 antibodies-stimulated human CD4+ T cell activation at 1.11 uM assessed fold increase in CD69 expression measured by flow cytometry analysis; type: functional, T cell line; further: reference of the scale not given here
[28] = Induction of anti-CD3/CD28 antibodies-stimulated human T cell activation at 10 uM assessed fold increase in GM-CSF secretion measured by ELISA assay; type: functional, T cell line
[29] = Induction of anti-CD3/CD28 antibodies-stimulated human T cell activation at 1.11 uM assessed fold increase in TNF-alpha secretion measured by ELISA assay; type: functional, T cell line
[30] = Induction of anti-CD3 antibodies-stimulated human T cell activation at 1.11 uM assessed fold increase in IFN-gamma secretion measured by ELISA assay; type: functional, T cell line; further: reference of the scale not given here
[31] = Induction of anti-CD3 antibodies-stimulated human CD8+ T cell activation at 1.11 uM assessed fold increase in cell proliferation measured by flow cytometry analysis; type: functional, T cell line; further: reference of the scale not given here
[32] = Induction of anti-CD3 antibodies-stimulated human T cell activation at 8 uM assessed fold increase in IL-2 secretion measured by ELISA assay; type: functional, T cell line; further: reference of the scale not given here
[33] = Induction of anti-CD3/CD28 antibodies-stimulated human CD4+ T cell activation at 10 uM assessed fold increase in cell proliferation measured by flow cytometry analysis; type: functional, T cell line
[34] = Induction of anti-CD3/CD28 antibodies-stimulated human T cell activation at 4 uM assessed fold increase in CD25 expression measured by ELISA assay; type: functional, T cell line
[35] = Induction of allogenic human T cell activation at 3 uM assessed fold increase in cell proliferation; type: functional, T cell line
[36] = Induction of anti-CD3/CD28 antibodies-stimulated human CD4+ T cell activation at 1.11 uM assessed fold increase in CD69 expression measured by flow cytometry analysis; type: functional, T cell line
[37] = tested on: B cell; experiment: Induction of anti-IgM-stimulated human CD20+ B cell activation at 10 to 1000 uM assessed as increase in CD69 expression measured as mean fluorescence intensity AUC by flow cytometry analysis; type: functional, cell-based; details: dose 10-1000 µM
[38] = Induction of anti-CD3 antibodies-stimulated human T cell activation at 10 uM assessed fold increase in GM-CSF secretion measured by ELISA assay; type: functional, T cell line; further: reference of the scale not given here

Compound | fold change (FC) [1] | fold change (FC) [2] | fold change (FC) [3] | fold change (FC) [4] | fold change (FC) [5] | fold change (FC) [6] | fold change (FC) [7] | fold change (FC) [8] | fold change (FC) [9] | fold change (FC) [10] | fold change (FC) [11] | fold change (FC) [12] | fold change (FC) [13] | fold change (FC) [14] | fold change (FC) [15] | fold change (FC) [16] | fold change (FC) [17] | fold change (FC) [18] | fold change (FC) [19] | fold change (FC) [20] | further results
C[C@H](Cc1nncn1C)c1cccc(N2Cc3c(cc(CN4CC[C@](C)(O)C4)cc3C(F)(F)F)C2=O)c1 | 1.201 | >4 | 1.01 | 1.31 | 2.01 | >4.01 | >=5 | 2.51 | 2.01 | >4 | 3.01 | >1.61 | 2.01 | 2.01 | 2.01 | 0.101 | <=2.5 | >=7.5 | 2.01 | >1.601 | fold change (FC) [21]: >4; fold change (FC) [22]: >1.61; fold change (FC) [23]: 2.01; fold change (FC) [24]: >=1.001; fold change (FC) [25]: 1.41; fold change (FC) [26]: 3.01; fold change (FC) [27]: >1.601; fold change (FC) [28]: >4; fold change (FC) [29]: 2.01; fold change (FC) [30]: <=2; fold change (FC) [31]: >4; fold change (FC) [32]: >=0.201; fold change (FC) [33]: >4; fold change (FC) [34]: 1.31; fold change (FC) [35]: 2.01; fold change (FC) [36]: 1.401; AUC [37]: 0.5; fold change (FC) [38]: >4
Cc1cc2c(c(C3CC3)n1)CN(c1cccc([C@H](C)Cc3nncn3C)c1)C2=O | 1.201 | <=2 | <=1 | 1.01 | <=1.5 | <=2.5 | 2.01 | 1.01 | <=1.5 | 2.01 | <=2 | <=1.4 | <=1 | 2.01 | 1.01 | 0.051 | <=2.5 | 2.51 | <=2 | 1.201 | fold change (FC) [21]: 2.01; fold change (FC) [22]: <=1.4; fold change (FC) [23]: 1.01; fold change (FC) [24]: 0.601; fold change (FC) [25]: <=1.4; fold change (FC) [26]: <=2; fold change (FC) [27]: <=1.2; fold change (FC) [28]: 2.01; fold change (FC) [29]: <=1.5; fold change (FC) [30]: <=2; fold change (FC) [31]: <=2; fold change (FC) [32]: 0.101; fold change (FC) [33]: >4; fold change (FC) [34]: 1.01; fold change (FC) [35]: <=2; fold change (FC) [36]: <=1.2; AUC [37]: < 0.5; fold change (FC) [38]: 1.51
C[C@H](Sc1nncn1C)c1cccc(NC(=O)c2cc(C(=O)N3CC[C@H](O)C3)ccn2)c1 | 1.201 | >4 | <=1 | 1.01 | 2.01 | <=2.5 | 1.01 | <=1 | 2.01 | >4 | 2.01 | <=1.4 | <=1 | 2.01 | <=1 | <=0.05 | <=2.5 | <=1 | <=2 | >1.601 | fold change (FC) [21]: >4; fold change (FC) [22]: <=1.4; fold change (FC) [23]: <=1; fold change (FC) [24]: 0.601; fold change (FC) [25]: <=1.4; fold change (FC) [26]: >4; fold change (FC) [27]: >1.601; fold change (FC) [28]: >4; fold change (FC) [29]: 2.01; fold change (FC) [30]: 3.01; fold change (FC) [31]: >4; fold change (FC) [32]: <=0.05; fold change (FC) [33]: >4; fold change (FC) [34]: 1.01; fold change (FC) [35]: <=2; fold change (FC) [36]: 1.401; AUC [37]: < 0.5; fold change (FC) [38]: 2.01
